Experiment [1] addresses T1, NPSR1-A (Homo sapiens, UniProt Q6W5P4, N107I).
T1 construct: expressed in transfected cells; host or cells: HEK-293, transient transfection with pCMV-NPSR1-A
T1 sequence (Q6W5P4 1-371 N107I): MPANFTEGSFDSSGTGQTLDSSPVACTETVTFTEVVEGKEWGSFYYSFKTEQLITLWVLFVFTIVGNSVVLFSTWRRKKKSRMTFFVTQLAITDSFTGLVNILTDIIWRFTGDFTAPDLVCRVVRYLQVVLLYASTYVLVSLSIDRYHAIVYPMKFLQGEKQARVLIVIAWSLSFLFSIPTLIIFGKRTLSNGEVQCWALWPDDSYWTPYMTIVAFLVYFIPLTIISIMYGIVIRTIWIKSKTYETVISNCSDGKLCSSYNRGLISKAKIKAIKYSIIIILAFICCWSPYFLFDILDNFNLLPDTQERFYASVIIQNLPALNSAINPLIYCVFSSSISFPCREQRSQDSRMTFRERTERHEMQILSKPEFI
The experiment in a line: NPS concentration-response, mRNA expression by qRT-PCR, HEK-293 NPSR1-A. As to conditions: 0.001-10 μM NPS, 6 h, Hill fit, mean ± SEM. It counts as cell-based. The procedure:
(§1) Human embryonic kidney cells (HEK-293) were cultured in MEM+GlutaMAX-1 medium (Gibco/Invitrogen) supplemented with 10% fetal calf serum (FCS) (Biosera), 1% sodium pyruvate, 1% non-essential amino acids and 1% penicillin/streptomycin (Gibco/Invitrogen). Human epithelial lung carcinoma cells (A549) were cultured in F-12/D-MEM medium (1:1; Gibco/Invitrogen) supplemented with 10% FCS, L-glutamine and 1% penicillin/streptomycin. Human neuroblastoma cells (SH-SY5Y) were cultured in MEM + GlutaMAX-1 medium supplemented with 10% FCS and 1% penicillin/streptomycin. All cells were kept at 37°C in a humified 5% CO2 incubator. The cells were transiently transfected (Lipofectamin™2000 Reagent, Invitrogen, Carlsbad, USA) with equal amounts of pCMV-NPSR1-A,- NPSR1-B (construction of the expression vectors has been described earlier) or an empty pCMV vector control in a ratio of 1:2 (DNA:Lipofectamin). 24 h post transfection cells were stimulated with NPS ([…]) (Sigma-Genosys LTD, Haverhill, UK or New England Peptide™, Gardner, MA, USA).
(§2) Total cellular RNA was isolated with the RNAeasy Mini Kit (Qiagen, Hilden, Germany) and reverse transcription was done using the iScript™ cDNA synthesis kit (Bio-Rad Laboratories, Hercules, CA, USA) or SuperScript™ First-Strand Synthesis System (Invitrogen, Carlsbad, USA) according to the manufacturer's protocol. All experiments were performed in biological duplicates or triplicates. qRT-PCR was performed using Fast SYBR® Green technology with hypoxanthine-guanine phosphoribosyl transferase (HPRT) or glyceraldehyde-3-phosphate dehydrogenase (GAPDH) as endogenous controls. Gene-specific primers were designed using Primer3 software (for complete lists of all primer sequences please see Additional file 1, Table S1). The PCR assays were performed in a total volume of 10 μl, containing 2 ul cDNA template, 5 ul Fast SYBR® Green PCR Master Mix (Applied Biosystems, Foster City, CA, USA) and 100 nM of each primer. A 7500 Fast Real-Time PCR system (Applied Biosystems) was used according to manufacturer's instructions. A dissociation stage was added to confirm primer specificity. All assays were carried out in technical duplicates or triplicates. Relative quantification and calculation of the range of confidence was performed with the comparative ΔΔCT method. Results are shown as relative expression compared to NPS stimulated empty vector control cells with error bars illustrating the standard error of the mean (SEM). The levels of total NPSR1 mRNA and isoform specific NPSR1-A and NPSR1-B mRNA were measured with qRT-PCR to control for equal isoform expression levels prior to any experiment on all transiently transfected cells (representative data shown Figure 2b).
(§3) To refine concentration and time dependency transiently NPSR1-A, -B or empty pCMV vector overexpressing cells were treated either with 0.001, 0.01, 0.1, 1 or 10 μM NPS for 6 h (concentration-response) or with 2 μM NPS for 30 min, 1, 2, 4, 6, 12, 24 or 48 h (time-response). To verify the results in other cell types, A549 and SH-SY5Y transiently overexpressing NPSR1-A, -B or an empty pCMV vector were treated with 2 μM NPS for 6 h. mRNA expression was measured with qRT-PCR. Agonist concentration-effect curve data were fitted to the Hill equation using an iterative, least squares method (GraphPad Prism, San Diego, CA, U.S.A), to provide estimate EC50 (the agonist concentration that induces half-maximum effect) and presented as -log10 (pEC50) which is normally distributed.

Experiment [2] has as its target T2, NPSR1-B (Homo sapiens, UniProt Q6W5P4, N107I).
T2 construct: expressed in transfected cells; host or cells: HEK-293, transient transfection with pCMV-NPSR1-B
T2 sequence (Q6W5P4 1-377 isoform Q6W5P4-4 N107I): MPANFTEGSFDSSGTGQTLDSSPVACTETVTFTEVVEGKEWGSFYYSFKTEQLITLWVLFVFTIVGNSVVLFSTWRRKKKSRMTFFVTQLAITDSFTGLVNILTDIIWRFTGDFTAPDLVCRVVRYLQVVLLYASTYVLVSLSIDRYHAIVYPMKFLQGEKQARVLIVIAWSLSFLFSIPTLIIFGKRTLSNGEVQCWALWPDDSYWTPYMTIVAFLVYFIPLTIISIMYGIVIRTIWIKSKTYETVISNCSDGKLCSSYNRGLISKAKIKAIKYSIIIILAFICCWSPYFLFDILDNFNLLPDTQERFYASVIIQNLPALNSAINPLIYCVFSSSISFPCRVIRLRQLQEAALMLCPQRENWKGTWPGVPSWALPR
The experiment in a line: NPS concentration-response, mRNA expression by qRT-PCR, HEK-293 NPSR1-B. It counts as cell-based. As to conditions: 0.001-10 μM NPS, 6 h, Hill fit, mean ± SEM. As to the method: as §1, §2, §3

Experiment [3] addresses T1, NPSR1-A. Nature of the experiment: cAMP accumulation (EIA), HEK-293 NPSR1-A. The experiment is classed as cell-based. As to conditions: 0.001-10 μM NPS, 20 min, 200 μM 3-isobutyl-1-methylxanthine 40 min before, six replicas, mean ± SEM. The procedure:
(§4) Human embryonic kidney cells (HEK-293) were cultured in MEM+GlutaMAX-1 medium (Gibco/Invitrogen) supplemented with 10% fetal calf serum (FCS) (Biosera), 1% sodium pyruvate, 1% non-essential amino acids and 1% penicillin/streptomycin (Gibco/Invitrogen). Human epithelial lung carcinoma cells (A549) were cultured in F-12/D-MEM medium (1:1; Gibco/Invitrogen) supplemented with 10% FCS, L-glutamine and 1% penicillin/streptomycin. Human neuroblastoma cells (SH-SY5Y) were cultured in MEM + GlutaMAX-1 medium supplemented with 10% FCS and 1% penicillin/streptomycin. All cells were kept at 37°C in a humified 5% CO2 incubator. The cells were transiently transfected (Lipofectamin™2000 Reagent, Invitrogen, Carlsbad, USA) with equal amounts of pCMV-NPSR1-A,- NPSR1-B (construction of the expression vectors has been described earlier) or an empty pCMV vector control in a ratio of 1:2 (DNA:Lipofectamin). […]
(§5) To assay cAMP accumulation, transiently NPSR1-A or -B overexpressing HEK-293 cells were 24 h after transfection incubated for 40 min with 200 μM 3-isobutyl-1-methylxanthine (Sigma-Aldrich, St. Louis, MO, USA), a nonspecific inhibitor of phosphodiesterases. […] The fluorescence intensity was measured before and after injection of 1 μM NPS using the Fluostar Optima microplate reader (BMG Labtechnologies, Offenburg, Germany).

The target of experiment [4] is T2, NPSR1-B. The experiment in a line: cAMP accumulation (EIA), HEK-293 NPSR1-B. It counts as cell-based. As to conditions: 0.001-10 μM NPS, 20 min, 200 μM 3-isobutyl-1-methylxanthine 40 min before, six replicas, mean ± SEM. As to the method: as §4, §5
The subject of experiment [5] is monocytic cell lines. As to conditions: pro-inflammatory stimuli, ref [10]; cited from earlier work. The text has this: The increasing number of positive association studies supports the concept that NPSR1 is mechanistically involved in asthma and allergy, and also in other diseases. It is therefore highly important to understand its functions in more detail. […] Furthermore, we have observed that out ...

The mark [6] stands for this setting: read-out: pEC50, AREG mRNA (converted).
The mark [7] stands for this setting: read-out: pEC50, CGA mRNA (converted).
The mark [8] stands for this setting: read-out: pEC50, NR4A2 mRNA (converted).
[9] abbreviates: read-out: pEC50, PCK1 mRNA (converted).

No end group written: not given here.

Turning to “SFRNGVGTGMKKTSFQRAKS [NPS, neuropeptide S]”, the EC50 in experiment [1] (setting [6]) was 234 nM; in experiment [1] (setting [7]), 45.7 nM; in experiment [1] (read-out: pEC50, EGR1 mRNA (converted)), 72.4 nM; in experiment [1] (read-out: pEC50, FOS mRNA (converted)), 53.7 nM; in experiment [1] (read-out: pEC50, IL8 mRNA (converted)), 44.7 nM; in experiment [1] (setting [8]) it was 7.94 nM. Besides, the EC50 in experiment [1] (read-out: pEC50, NTS mRNA (converted)) is 87.1 nM; in experiment [1] (setting [9]), 162 nM; in experiment [2] (setting [6]) it was 170 nM; in experiment [2] (read-out: pEC50, CCL20 mRNA (converted)), 100 nM; in experiment [2] (setting [7]), 100 nM; in experiment [2] (setting [8]) it was 83.2 nM. The EC50 is 89.1 nM in experiment [2] (setting [9]); 126 nM in experiment [2] (read-out: pEC50, SERPINB2 mRNA (converted)); 4.47 nM in experiment [3]; 3.89 nM in experiment [4].
Consider TNFα, for which the “NPSR1 mRNA levels” value in experiment [5] is listed as “generated elevated NPSR1 mRNA levels”.

B1: IFNγ: pro-inflammatory stimulus (protein, UniProt P01579 24-161, looked up)
Interferon gamma: QDPYVKEAENLKKYFNAGHSDVADNGTLFLGILKNWKEESDRKIMQSQIVSFYFKLFKNFKDDQSIQKSVETIKEDMNVKFFNSNKKKRDDFEKLTNYSVTDLNVQRKAIHELIQVMAELSPAAKTGKRKRSQMLFRG
Consider B1, for which, in experiment [5], the “NPSR1 mRNA levels” value is “generated elevated NPSR1 mRNA levels”.

Values taken from article PMC3142248, “The asthma candidate gene NPSR1 mediates isoform specific downstream signalling” (BMC Pulmonary Medicine, 2011).
